Data as given in the NIST ThermoML archive (doi:10.1007/s10765-009-0602-6).

Assay: molar heat capacity at constant volume; xn = mol fraction of the nth substance listed
Conditions: x1 = 0.2607

N [ammonia] + O
Conditions | molar heat capacity at constant volume [J/K/mol]
508.07 K, Fluid (supercritical or subcritical phases), Mass density=671.23 kg/m3, isochoric heat capacity | 68.25
508.07 K, Liquid, Isochoric heat capacity | 68.25
508.26 K, Fluid (supercritical or subcritical phases), Mass density=671.23 kg/m3, isochoric heat capacity | 68.14
508.36 K, Fluid (supercritical or subcritical phases), Mass density=671.23 kg/m3, isochoric heat capacity | 68.37
508.45 K, Fluid (supercritical or subcritical phases), Mass density=671.23 kg/m3, isochoric heat capacity | 67.54
508.54 K, Fluid (supercritical or subcritical phases), Mass density=671.23 kg/m3, isochoric heat capacity | 67.61
508.64 K, Fluid (supercritical or subcritical phases), Mass density=671.23 kg/m3, isochoric heat capacity | 67.18
509.01 K, Fluid (supercritical or subcritical phases), Mass density=671.23 kg/m3, isochoric heat capacity | 68.48
509.11 K, Fluid (supercritical or subcritical phases), Mass density=671.23 kg/m3, isochoric heat capacity | 67.7
509.3 K, Fluid (supercritical or subcritical phases), Mass density=671.23 kg/m3, isochoric heat capacity | 67.89
509.39 K, Fluid (supercritical or subcritical phases), Mass density=671.23 kg/m3, isochoric heat capacity | 66.74
509.67 K, Fluid (supercritical or subcritical phases), Mass density=671.23 kg/m3, isochoric heat capacity | 67.09
513.42 K, Fluid (supercritical or subcritical phases), Mass density=671.23 kg/m3, isochoric heat capacity | 65.53
513.61 K, Fluid (supercritical or subcritical phases), Mass density=671.23 kg/m3, isochoric heat capacity | 65.05
513.8 K, Fluid (supercritical or subcritical phases), Mass density=671.23 kg/m3, isochoric heat capacity | 65.6
516.88 K, Fluid (supercritical or subcritical phases), Mass density=671.23 kg/m3, isochoric heat capacity | 63.54
517.07 K, Fluid (supercritical or subcritical phases), Mass density=671.23 kg/m3, isochoric heat capacity | 63.15
517.26 K, Fluid (supercritical or subcritical phases), Mass density=671.23 kg/m3, isochoric heat capacity | 63.06
517.44 K, Fluid (supercritical or subcritical phases), Mass density=671.23 kg/m3, isochoric heat capacity | 63.27
517.63 K, Fluid (supercritical or subcritical phases), Mass density=671.23 kg/m3, isochoric heat capacity | 62.44
517.82 K, Fluid (supercritical or subcritical phases), Mass density=671.23 kg/m3, isochoric heat capacity | 63.49
519.77 K, Fluid (supercritical or subcritical phases), Mass density=649.65 kg/m3, isochoric heat capacity | 68.81
519.77 K, Liquid, Isochoric heat capacity | 68.81
519.87 K, Fluid (supercritical or subcritical phases), Mass density=649.65 kg/m3, isochoric heat capacity | 68.23
520.05 K, Fluid (supercritical or subcritical phases), Mass density=649.65 kg/m3, isochoric heat capacity | 65.99
520.14 K, Fluid (supercritical or subcritical phases), Mass density=649.65 kg/m3, isochoric heat capacity | 66.91
520.24 K, Fluid (supercritical or subcritical phases), Mass density=649.65 kg/m3, isochoric heat capacity | 67.27
520.33 K, Fluid (supercritical or subcritical phases), Mass density=649.65 kg/m3, isochoric heat capacity | 64.87
520.42 K, Fluid (supercritical or subcritical phases), Mass density=649.65 kg/m3, isochoric heat capacity | 66.63
520.52 K, Fluid (supercritical or subcritical phases), Mass density=649.65 kg/m3, isochoric heat capacity | 67.09
520.79 K, Fluid (supercritical or subcritical phases), Mass density=649.65 kg/m3, isochoric heat capacity | 65.87
520.98 K, Fluid (supercritical or subcritical phases), Mass density=649.65 kg/m3, isochoric heat capacity | 65.39
521.17 K, Fluid (supercritical or subcritical phases), Mass density=649.65 kg/m3, isochoric heat capacity | 66.9
521.35 K, Fluid (supercritical or subcritical phases), Mass density=649.65 kg/m3, isochoric heat capacity | 66.72
521.45 K, Fluid (supercritical or subcritical phases), Mass density=649.65 kg/m3, isochoric heat capacity | 66.06
521.54 K, Fluid (supercritical or subcritical phases), Mass density=649.65 kg/m3, isochoric heat capacity | 65.81
526.45 K, Fluid (supercritical or subcritical phases), Mass density=649.65 kg/m3, isochoric heat capacity | 63.84
526.64 K, Fluid (supercritical or subcritical phases), Mass density=649.65 kg/m3, isochoric heat capacity | 63.74
526.82 K, Fluid (supercritical or subcritical phases), Mass density=649.65 kg/m3, isochoric heat capacity | 63.43
527.01 K, Fluid (supercritical or subcritical phases), Mass density=649.65 kg/m3, isochoric heat capacity | 63.65
527.19 K, Fluid (supercritical or subcritical phases), Mass density=649.65 kg/m3, isochoric heat capacity | 62.83
527.28 K, Fluid (supercritical or subcritical phases), Mass density=649.65 kg/m3, isochoric heat capacity | 63.36
545.62 K, Fluid (supercritical or subcritical phases), Mass density=594.32 kg/m3, isochoric heat capacity | 71.3
545.62 K, Liquid, Isochoric heat capacity | 71.3
545.71 K, Fluid (supercritical or subcritical phases), Mass density=594.32 kg/m3, isochoric heat capacity | 69.65
545.8 K, Fluid (supercritical or subcritical phases), Mass density=594.32 kg/m3, isochoric heat capacity | 69.15
546.08 K, Fluid (supercritical or subcritical phases), Mass density=594.32 kg/m3, isochoric heat capacity | 68.46
546.17 K, Fluid (supercritical or subcritical phases), Mass density=594.32 kg/m3, isochoric heat capacity | 67.48
546.35 K, Fluid (supercritical or subcritical phases), Mass density=594.32 kg/m3, isochoric heat capacity | 68.48
546.62 K, Fluid (supercritical or subcritical phases), Mass density=594.32 kg/m3, isochoric heat capacity | 67.15
546.71 K, Fluid (supercritical or subcritical phases), Mass density=594.32 kg/m3, isochoric heat capacity | 66.47
547.07 K, Fluid (supercritical or subcritical phases), Mass density=594.32 kg/m3, isochoric heat capacity | 65.62
547.17 K, Fluid (supercritical or subcritical phases), Mass density=594.32 kg/m3, isochoric heat capacity | 66.33
547.5 K, Fluid (supercritical or subcritical phases), Mass density=594.32 kg/m3, isochoric heat capacity | 65.53
547.79 K, Fluid (supercritical or subcritical phases), Mass density=594.32 kg/m3, isochoric heat capacity | 65.46
547.98 K, Fluid (supercritical or subcritical phases), Mass density=594.32 kg/m3, isochoric heat capacity | 63.91
549.8 K, Fluid (supercritical or subcritical phases), Mass density=594.32 kg/m3, isochoric heat capacity | 63.77
549.98 K, Fluid (supercritical or subcritical phases), Mass density=594.32 kg/m3, isochoric heat capacity | 62.97
550.07 K, Fluid (supercritical or subcritical phases), Mass density=594.32 kg/m3, isochoric heat capacity | 63.74
550.16 K, Fluid (supercritical or subcritical phases), Mass density=594.32 kg/m3, isochoric heat capacity | 63.45
550.34 K, Fluid (supercritical or subcritical phases), Mass density=594.32 kg/m3, isochoric heat capacity | 63.56
561.03 K, Fluid (supercritical or subcritical phases), Mass density=552.58 kg/m3, isochoric heat capacity | 73.2
561.03 K, Liquid, Isochoric heat capacity | 73.2
561.19 K, Fluid (supercritical or subcritical phases), Mass density=552.58 kg/m3, isochoric heat capacity | 70.73
561.25 K, Fluid (supercritical or subcritical phases), Mass density=552.58 kg/m3, isochoric heat capacity | 66.7
561.34 K, Fluid (supercritical or subcritical phases), Mass density=552.58 kg/m3, isochoric heat capacity | 64.8
561.52 K, Fluid (supercritical or subcritical phases), Mass density=552.58 kg/m3, isochoric heat capacity | 64.06
561.61 K, Fluid (supercritical or subcritical phases), Mass density=552.58 kg/m3, isochoric heat capacity | 62.44
561.7 K, Fluid (supercritical or subcritical phases), Mass density=552.58 kg/m3, isochoric heat capacity | 64.39
561.88 K, Fluid (supercritical or subcritical phases), Mass density=552.58 kg/m3, isochoric heat capacity | 63.24
561.97 K, Fluid (supercritical or subcritical phases), Mass density=552.58 kg/m3, isochoric heat capacity | 62.79
562.06 K, Fluid (supercritical or subcritical phases), Mass density=552.58 kg/m3, isochoric heat capacity | 61.43
565.36 K, Liquid, Isochoric heat capacity | 73.52
580.18 K, Fluid (supercritical or subcritical phases), Mass density=476.25 kg/m3, isochoric heat capacity | 77.25
580.18 K, Liquid, Isochoric heat capacity | 77.25
580.21 K, Fluid (supercritical or subcritical phases), Mass density=476.25 kg/m3, isochoric heat capacity | 73.61
580.3 K, Fluid (supercritical or subcritical phases), Mass density=476.25 kg/m3, isochoric heat capacity | 69.74
580.56 K, Fluid (supercritical or subcritical phases), Mass density=476.25 kg/m3, isochoric heat capacity | 68.42
580.74 K, Fluid (supercritical or subcritical phases), Mass density=476.25 kg/m3, isochoric heat capacity | 68.46
580.92 K, Fluid (supercritical or subcritical phases), Mass density=476.25 kg/m3, isochoric heat capacity | 67.84
581.01 K, Fluid (supercritical or subcritical phases), Mass density=476.25 kg/m3, isochoric heat capacity | 68.48
